Data on two molecules can be found in PMC11045757, “Group 3 medulloblastoma transcriptional networks collapse under domain specific EP300/CBP inhibition” (Nature Communications, 2024).

The subject of one assay is MB002 cells. The assay can be described thus: ERCC spike-in RNAseq gene expression after 6 h treatment. The class given is cell-based. The settings on record: MB002, replicate values, Supplementary Fig 6c. On the procedure: (§1) First, we examined global changes in gene expression induced by drug treatment.
(§2) External RNA consortium control RNAs (ERCC, Ambion) were added directly to Trizol, based on cell number prior to RNA extraction. RNA samples were treated with DNAse I (Invitrogen) prior to recovery. Samples were obtained in biological triplicate. Total RNA was subjected to ribosomal RNA depletion prior to library preparation using the Truseq Stranded Total Library Prep Kit (Illumina) and sequencing on a Nextseq-500 (paired end, 100 bp reads).
(§3) Sequences were aligned using HISAT2 (version 2.1.0)[77] in paired-end mode with default parameters to build version hg19 of the human genome to which the sequences of the ERCC synthetic spike-in RNAs (http://tools.invitrogen.com/downloads/ERCC92.fa) had been added. Per-gene expression was quantified using htseq-count[78] with parameters “-i gene_id --stranded=reverse -f bam -m,” and version 87 of the canonical GRCh37 gene list from RefSeq to which ERCC coordinates were added. TPM-normalized (Transcripts Per Million) expression was then computed for each gene and synthetic ERCC spike-in RNA. Per-gene exon length was calculated across all exons of all isoforms of each gene. The standard TPM-normalization strategy is: normterm = sum of (read count * read length/exon length) across all genes. TPM = read count * read length/exon length * 1e6/normterm. We used a loess regression to normalize the TPM values across all samples of the batch, using only the spike-in values to fit the loess by the “affy” R package[79] with function loess.normalize. This function allowed us to perform loess regression on a matrix of TPM values and used the ERCC subset of data for fitting the loess. The output from this was a matrix of normalized TPM values controlled by ERCC spike-ins.
(§4) We used the elbow method[81] to determine the k value in k-means cluster analysis.
(§5) Dependency analysis was performed using the 22Q4 release of the DepMap dataset, comprising seven medulloblastoma cell lines: UW228, DAOY, ONS76, D458, D425, D283MED, D341MED. Dependency was defined as a Chronos gene effect score of <−0.5, and gene lists were filtered for dependency in >2/7 medulloblastoma cell lines. […] PANTHER was used to define gene annotations, with unknown annotations assigned using individual assessment using the Genecards.org resource.

The subject of the next assay is HDMB03 (HDMBO3) cells. The assay is described as above. The settings on record: HDMBO3, replicate values, Supplementary Fig 6c. The class given is cell-based. On the procedure:
as §1, §2, §3, §4, §5

“And” between values parts separate entries of the source, which are not always exact repeats. Equal values may be shown once.

Turning to `CNC(=O)Nc1ccc2c(c1)CCC21OC(=O)N(CC(=O)N(Cc2ccc(F)cc2)C(C)C(F)(F)F)C1=O` (stereo not shown) [Compound A485], the “Normalized MYC expression” value with MB002 cells is 0.2801 and 0.5062 and 0.4843; with HDMB03 (HDMBO3) cells, 0.9151 and 0.6386 and 0.4867.
In the case of `CO[C@H]1CC[C@H](n2c([C@@H]3CCCC(=O)N3c3ccc(F)c(F)c3)nc3cc(-c4c(C)noc4C)ccc32)CC1` [CCS1477], the “Normalized MYC expression” value in the assay on MB002 cells was 0.3944 and 0.5851 and 0.5892; in the assay with HDMB03 (HDMBO3) cells it was 0.5957 and 0.4799 and 0.4227.
